Experimental data published in ChEMBL document CHEMBL1149514, “Tetrahydrofluorenones with conformationally restricted side chains as selective estrogen receptor beta ligands” (Bioorg Med Chem Lett, 2006).

Legend:
Estrogen receptor beta = Estrogen receptor beta (Homo sapiens, UniProt Q92731)
Description: Binding affinity to human recombinant ERbeta by scintillation proximity assay

Estrogen receptor = target: T1, Estrogen receptor (Homo sapiens, UniProt P03372)
T1 sequence (P03372 whole entry): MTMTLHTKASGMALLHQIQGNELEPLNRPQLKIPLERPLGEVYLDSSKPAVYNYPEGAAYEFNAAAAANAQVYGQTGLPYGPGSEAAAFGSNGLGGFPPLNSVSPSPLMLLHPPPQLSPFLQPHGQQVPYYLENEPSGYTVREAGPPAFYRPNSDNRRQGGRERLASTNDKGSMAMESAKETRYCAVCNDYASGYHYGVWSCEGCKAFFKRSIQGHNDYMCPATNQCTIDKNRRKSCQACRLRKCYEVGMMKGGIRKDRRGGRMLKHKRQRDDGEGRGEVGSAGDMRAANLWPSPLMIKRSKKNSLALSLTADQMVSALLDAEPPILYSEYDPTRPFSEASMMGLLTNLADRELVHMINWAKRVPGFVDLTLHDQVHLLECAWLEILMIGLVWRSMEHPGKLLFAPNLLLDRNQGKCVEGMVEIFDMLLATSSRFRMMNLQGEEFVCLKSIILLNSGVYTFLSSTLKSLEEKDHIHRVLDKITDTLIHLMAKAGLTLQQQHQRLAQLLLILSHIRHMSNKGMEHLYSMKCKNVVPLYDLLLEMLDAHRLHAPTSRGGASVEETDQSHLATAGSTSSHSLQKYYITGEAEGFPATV
Description: Binding affinity to human recombinant ERalpha by scintillation proximity assay

Sequence of Estrogen receptor beta (Q92731 whole entry): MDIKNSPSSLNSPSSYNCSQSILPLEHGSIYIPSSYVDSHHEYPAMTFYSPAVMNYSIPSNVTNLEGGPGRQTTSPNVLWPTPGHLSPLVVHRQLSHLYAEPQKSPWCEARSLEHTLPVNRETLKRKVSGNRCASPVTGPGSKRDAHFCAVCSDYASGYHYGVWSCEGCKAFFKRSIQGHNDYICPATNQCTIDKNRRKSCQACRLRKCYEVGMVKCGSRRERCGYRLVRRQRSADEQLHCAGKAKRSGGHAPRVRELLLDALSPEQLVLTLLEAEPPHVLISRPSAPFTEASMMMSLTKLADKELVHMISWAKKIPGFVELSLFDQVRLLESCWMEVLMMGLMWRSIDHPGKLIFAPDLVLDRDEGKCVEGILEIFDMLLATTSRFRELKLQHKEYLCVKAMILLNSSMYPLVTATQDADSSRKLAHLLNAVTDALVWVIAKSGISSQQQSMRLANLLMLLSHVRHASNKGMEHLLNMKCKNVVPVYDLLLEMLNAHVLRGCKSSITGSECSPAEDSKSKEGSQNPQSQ

Structure (SMILES)	IC50 (Estrogen receptor beta)	IC50 (Estrogen receptor)
CC[C@@H]1CC[C@@H]2C[C@]13Cc1cc(O)ccc1C3=C(C)C2=O	0.005 µM	0.146 µM
CC[C@H]1CC[C@@H]2C[C@]13Cc1cc(O)ccc1C3=C(C)C2=O	0.045 µM	0.31 µM
CC1=C2c3ccc(O)cc3C[C@@]23CCC[C@H](C3)C1=O	0.011 µM	0.414 µM

Other lines, results leading:

IC50 (Estrogen receptor beta)	IC50 (Estrogen receptor)	Structure (SMILES)
0.012 µM	0.793 µM	CC1=C2c3ccc(O)cc3C[C@@]23CC[C@H](C3)C1=O
0.141 µM	0.605 µM	CCC[C@H]1CC[C@@H]2C[C@]13Cc1cc(O)ccc1C3=C(C)C2=O
0.005 µM	0.084 µM	CCC[C@@H]1CC[C@@H]2C[C@]13Cc1cc(O)ccc1C3=C(C)C2=O
